1 compound from ChEMBL document CHEMBL5728191, “Inhibitors of cyclin-dependent kinase 7 (CDK7)” (2020) can be followed below.

This assay has as its target CDK7/Cyclin H/MNAT1 (Homo sapiens, UniProt P50613). Nature of the assay: Inhibition of Kinase Activity: Compounds of the invention were assayed for activity against a variety of different kinases. It counts as protein-complex assay.

SMILES strings stand for the structures.

CDK7/Cyclin H/MNAT1, sequence (P51946 whole entry): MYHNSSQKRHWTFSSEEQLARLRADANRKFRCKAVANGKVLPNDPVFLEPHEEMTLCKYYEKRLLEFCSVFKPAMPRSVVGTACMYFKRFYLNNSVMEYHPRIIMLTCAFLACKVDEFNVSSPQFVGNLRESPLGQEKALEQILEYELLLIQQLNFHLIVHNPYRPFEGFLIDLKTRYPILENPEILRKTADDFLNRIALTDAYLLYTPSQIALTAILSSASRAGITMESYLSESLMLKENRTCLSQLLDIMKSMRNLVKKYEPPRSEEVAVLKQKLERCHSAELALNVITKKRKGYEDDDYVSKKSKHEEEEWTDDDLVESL
CDK7/Cyclin H/MNAT1, sequence (P50613 whole entry): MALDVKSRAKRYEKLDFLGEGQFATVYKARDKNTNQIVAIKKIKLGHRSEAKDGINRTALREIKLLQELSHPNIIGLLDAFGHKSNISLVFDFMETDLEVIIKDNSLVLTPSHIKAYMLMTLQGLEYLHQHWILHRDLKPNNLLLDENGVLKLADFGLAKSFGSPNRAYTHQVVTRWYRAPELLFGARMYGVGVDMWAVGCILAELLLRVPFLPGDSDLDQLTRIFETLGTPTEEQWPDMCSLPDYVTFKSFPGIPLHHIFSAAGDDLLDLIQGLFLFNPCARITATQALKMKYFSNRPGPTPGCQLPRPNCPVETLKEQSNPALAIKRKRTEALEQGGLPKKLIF
CDK7/Cyclin H/MNAT1, sequence (P51948 whole entry, further chain): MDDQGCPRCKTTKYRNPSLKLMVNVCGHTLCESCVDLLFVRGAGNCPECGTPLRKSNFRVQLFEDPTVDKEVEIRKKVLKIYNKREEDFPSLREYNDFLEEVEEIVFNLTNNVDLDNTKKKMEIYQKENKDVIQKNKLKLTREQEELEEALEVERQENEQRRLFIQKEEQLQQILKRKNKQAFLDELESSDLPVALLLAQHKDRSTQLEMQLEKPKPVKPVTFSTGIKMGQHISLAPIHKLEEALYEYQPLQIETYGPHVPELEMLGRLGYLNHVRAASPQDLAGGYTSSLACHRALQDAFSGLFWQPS

Compound `C=CC(=O)Nc1ccc(C(=O)Nc2nn(C)c3c2CN(C(=O)NC(C)CN(C)C)C3(C)C)cc1` (stereo unspecified) came in with an IC50 of more than 500 nM.
